Measured values reported in PubChem BioAssay (NCI).
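Growth conditions: 96-well plates. Treatment: test compound, 48 hours, 5 concentrations. Analysis: linear interpolation between bracketing concentrations; unreached endpoints set to highest concentration. TGI marks complete inhibition of growth.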

Columns and labels:
Test in all cases: NCI tumour cell line growth inhibition, 48 h
LXFL 529 NSCLC = test system: LXFL 529 NSCLC
RXF-631 renal = test system: RXF-631 renal
XF 498 CNS = test system: XF 498 CNS
DMS 273 small cell lung = test system: DMS 273 small cell lung
KM20L2 colon = test system: KM20L2 colon
P388 leukemia = test system: P388 leukemia
P388/ADR leukemia = test system: P388/ADR leukemia
SN12K1 renal = test system: SN12K1 renal

Row | SMILES | TGI (LXFL 529 NSCLC) | TGI (RXF-631 renal) | TGI (XF 498 CNS) | TGI (DMS 273 small cell lung) | TGI (KM20L2 colon) | TGI (P388 leukemia) | TGI (P388/ADR leukemia) | TGI (SN12K1 renal)
1 | Cc1cc(NS(=O)(=O)c2ccc(NC(=O)c3cccc4c(Nc5ccc(S(N)(=O)=O)cc5)c5ccccc5nc34)cc2)no1 | > 100 µM | > 100 µM | > 100 µM | – | – | – | – | –
2 | O=NN(CCF)C(=O)NC1CCSCC1 | – | – | – | > 100 µM | > 100 µM | > 100 µM | > 100 µM | > 100 µM
3 | CCCCCCCCCCCC[N+](CCCCCCCCCCCC)=C1SCCS1 | 14 µM | 52.2 µM | – | 11.4 µM | 18.4 µM | – | – | –
4 | CCOC(=O)c1c[nH]c2ccc3c(c2c1=O)S(=O)(=O)CC3 (tested in a mixture with another compound) | – | – | > 100 µM | > 100 µM | > 100 µM | > 100 µM | > 100 µM | > 100 µM
5 | O=C1NC2CCCCCC2C12CCCCC2 (stereo unspecified) | > 100 µM | > 100 µM | > 100 µM | – | > 100 µM | – | – | –
6 | CN1CCN(P2(=S)Oc3ccc4ccccc4c3-c3c(ccc4ccccc34)O2)CC1 | – | – | 67.3 µM | 73 µM | > 61.7 µM | > 68 µM | > 95.5 µM | 56.9 µM
7 | COC(=O)C(=O)Cc1nc2ccccc2o1 | > 100 µM | > 100 µM | > 100 µM | – | – | – | – | –
